Data published in US20210070748A1, “INHIBITORS OF BRUTONS TYROSINE KINASE” (Pharmacyclics LLC, priority 2015, published 2021).

Assays:
Type in all cases: biochemical
TEC = target: T1, TEC (Homo sapiens, UniProt P42680); experiment: Inhibition of a panel of kinases, in vitro HotSpot kinase assay: TEC; conditions: E compounds, Table 17
T1 sequence (P42680 1-631): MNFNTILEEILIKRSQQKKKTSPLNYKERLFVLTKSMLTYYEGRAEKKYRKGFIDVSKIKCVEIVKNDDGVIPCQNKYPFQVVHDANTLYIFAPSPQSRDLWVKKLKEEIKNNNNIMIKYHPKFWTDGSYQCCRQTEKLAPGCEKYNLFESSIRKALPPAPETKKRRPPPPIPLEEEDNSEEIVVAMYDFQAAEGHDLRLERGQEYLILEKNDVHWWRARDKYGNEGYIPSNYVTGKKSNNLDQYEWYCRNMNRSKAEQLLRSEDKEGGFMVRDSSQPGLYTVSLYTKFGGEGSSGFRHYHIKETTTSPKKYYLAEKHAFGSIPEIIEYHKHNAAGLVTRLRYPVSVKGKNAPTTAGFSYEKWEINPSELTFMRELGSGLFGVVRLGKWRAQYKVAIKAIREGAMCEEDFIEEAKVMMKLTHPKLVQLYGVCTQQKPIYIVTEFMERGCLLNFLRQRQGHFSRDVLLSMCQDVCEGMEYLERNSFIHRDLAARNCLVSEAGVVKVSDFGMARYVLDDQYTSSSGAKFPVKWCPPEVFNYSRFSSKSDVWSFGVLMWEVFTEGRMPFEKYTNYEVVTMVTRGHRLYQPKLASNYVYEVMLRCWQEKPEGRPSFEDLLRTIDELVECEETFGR
Method: (§1) The degree of inhibition of a panel of kinases is determined using the in vitro HotSpot kinase assay (purified enzymes, ^33P-ATP, an appropriate substrate and 1 μM ATP).

BTK-WT = target: T2, BTK-WT (Homo sapiens, UniProt Q06187); experiment: Btk in vitro inhibitory activity (one of Method A TR-FRET, Method B electrophoretic mobility shift, Method C radiometric filter binding); conditions: E compounds, Table 17; read-out: IC50 BTK-WT
T2 construct: purified from insect cells as a full-length construct containing an N-terminal 6X-His tag; His6 (N); made in house; host or cells: insect cells (baculovirus Sf21 in Method B)

ITK = target: T3, ITK (Homo sapiens, UniProt Q08881); experiment: Inhibition of a panel of kinases, in vitro HotSpot kinase assay: ITK; conditions: E compounds, Table 17
T3 sequence (Q08881 1-620): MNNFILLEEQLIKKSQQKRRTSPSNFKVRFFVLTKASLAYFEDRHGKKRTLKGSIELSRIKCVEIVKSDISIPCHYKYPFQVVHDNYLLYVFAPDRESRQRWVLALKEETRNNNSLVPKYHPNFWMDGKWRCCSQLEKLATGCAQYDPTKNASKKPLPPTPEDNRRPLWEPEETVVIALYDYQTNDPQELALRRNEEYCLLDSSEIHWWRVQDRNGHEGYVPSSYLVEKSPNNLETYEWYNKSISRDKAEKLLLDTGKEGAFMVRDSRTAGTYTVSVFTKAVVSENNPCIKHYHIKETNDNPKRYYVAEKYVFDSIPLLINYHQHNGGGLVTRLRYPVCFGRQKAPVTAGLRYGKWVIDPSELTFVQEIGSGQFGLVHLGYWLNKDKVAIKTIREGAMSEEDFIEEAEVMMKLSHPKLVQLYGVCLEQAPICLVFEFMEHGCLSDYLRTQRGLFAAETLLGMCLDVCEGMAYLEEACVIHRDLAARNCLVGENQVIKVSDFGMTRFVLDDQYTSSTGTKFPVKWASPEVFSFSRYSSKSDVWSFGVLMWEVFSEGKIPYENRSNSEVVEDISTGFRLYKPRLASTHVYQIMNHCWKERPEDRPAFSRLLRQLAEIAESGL
Method: as §1

T2 sequence (Q06187 whole entry): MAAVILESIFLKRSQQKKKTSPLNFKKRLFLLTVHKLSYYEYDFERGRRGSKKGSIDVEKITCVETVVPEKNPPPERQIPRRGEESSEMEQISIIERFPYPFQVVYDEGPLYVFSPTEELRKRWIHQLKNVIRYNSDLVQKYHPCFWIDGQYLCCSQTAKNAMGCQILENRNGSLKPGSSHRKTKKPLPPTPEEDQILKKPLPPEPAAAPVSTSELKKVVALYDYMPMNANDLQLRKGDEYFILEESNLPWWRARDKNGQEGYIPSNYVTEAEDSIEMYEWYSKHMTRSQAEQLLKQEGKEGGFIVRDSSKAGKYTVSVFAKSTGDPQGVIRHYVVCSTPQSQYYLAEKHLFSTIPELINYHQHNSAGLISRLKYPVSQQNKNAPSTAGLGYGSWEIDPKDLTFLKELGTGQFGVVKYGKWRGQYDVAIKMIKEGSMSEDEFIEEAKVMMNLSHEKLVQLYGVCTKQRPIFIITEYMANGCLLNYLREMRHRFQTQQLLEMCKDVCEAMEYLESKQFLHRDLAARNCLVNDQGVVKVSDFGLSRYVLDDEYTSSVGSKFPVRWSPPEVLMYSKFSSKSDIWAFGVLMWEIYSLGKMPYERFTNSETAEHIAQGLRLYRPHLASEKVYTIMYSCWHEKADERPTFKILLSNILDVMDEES

Row | Structure (SMILES) | IC50 (TEC) [nM] | IC50 (BTK-WT) [nM] | IC50 (ITK) [nM]
1 | Cc1cc(Nc2nc(N(C)[C@@H]3CCN(C(=O)c4ccc(C(O)(C(F)(F)F)C(F)(F)F)cc4)C3)nnc2C(N)=O)sn1 [Example E-13, (R)-3-((1-(4-(1,1,1,3,3,3-hexafluoro-2-hydroxypropan-2-yl)benzoyl)pyrrolidin-3-yl)(methyl)amino)-5-(3-methylisothiazol-5-ylamino)-1,2,4-triazine-6-carboxamide] | 100 to 1000 | 10 to 100 | 100 to 1000
2 | C=CC(=O)N1CC[C@@H](N(C)c2nnc(C(N)=O)c(Nc3ccc(C(O)(C(F)(F)F)C(F)(F)F)cc3)n2)C1 [Example E-16, (R)-3-((1-acryloylpyrrolidin-3-yl)(methyl)amino)-5-(4-(1,1,1,3,3,3-hexafluoro-2-hydroxypropan-2-yl)phenylamino)-1,2,4-triazine-6-carboxamide] | ≤ 10 | ≤ 10 | ≤ 10
3 | C=CC(=O)N1CCC[C@@H](Nc2nnc(C(N)=O)c(Nc3ccc(C(C)C)c(C)c3)n2)C1 [Example E-42, (R)-3-(1-acryloylpiperidin-3-ylamino)-5-(4-isopropyl-3-methylphenylamino)-1,2,4-triazine-6-carboxamide] | ≤ 10 | ≤ 10 | 10 to 100
4 | C=CC(=O)N1CCC[C@@H](Nc2nnc(C(N)=O)c(Nc3ccc(C)cc3)n2)C1 [Example E-43, (R)-3-(1-acryloylpiperidin-3-ylamino)-5-(p-tolylamino)-1,2,4-triazine-6-carboxamide] | ≤ 10 | ≤ 10 | 10 to 100
5 | C=CC(=O)N1CCC[C@@H](Nc2nnc(C(N)=O)c(Nc3ccc(C4CCN(C5CCCC5)CC4)cc3)n2)C1 [Example E-48, (R)-3-(1-acryloylpiperidin-3-ylamino)-5-(4-(1-cyclopentylpiperidin-4-yl)phenylamino)-1,2,4-triazine-6-carboxamide] | ≤ 10 | ≤ 10 | ≤ 10
6 | C=CC(=O)N1CCC[C@@H](Nc2nnc(C(N)=O)c(Nc3ccc(C(C)(C)C#N)cc3)n2)C1 [Example E-49, (R)-3-(1-acryloylpiperidin-3-ylamino)-5-(4-(2-cyanopropan-2-yl)phenylamino)-1,2,4-triazine-6-carboxamide] | ≤ 10 | ≤ 10 | ≤ 10
7 | C=CC(=O)N1CCC[C@@H](Nc2nnc(C(N)=O)c(Nc3ccc(I)cc3)n2)C1 [Example E-50, (R)-3-(1-acryloylpiperidin-3-ylamino)-5-(4-iodophenylamino)-1,2,4-triazine-6-carboxamide] | ≤ 10 | ≤ 10 | 10 to 100
8 | C=CC(=O)N1CCC[C@@H](Nc2nnc(C(N)=O)c(Nc3ccc4ncsc4c3)n2)C1 [Example E-51, (R)-3-(1-acryloylpiperidin-3-ylamino)-5-(benzo[d]thiazol-6-ylamino)-1,2,4-triazine-6-carboxamide] | ≤ 10 | ≤ 10 | ≤ 10
9 | C=CC(=O)N1CCC[C@@H](Nc2nnc(C(N)=O)c(Nc3ccc(Cn4cncn4)cc3)n2)C1 [Example E-52, (R)-5-(4-((1H-1,2,4-triazol-1-yl)methyl)phenyl-amino)-3-(1-acryloylpiperidin-3-ylamino)-1,2,4-triazine-6-carboxamide] | ≤ 10 | ≤ 10 | ≤ 10
10 | C=CC(=O)N1CCC[C@@H](Nc2nnc(C(N)=O)c(Nc3cncc(F)c3)n2)C1 [Example E-53, (R)-3-(1-acryloylpiperidin-3-ylamino)-5-(5-fluoropyridin-3-ylamino)-1,2,4-triazine-6-carboxamide] | ≤ 10 | ≤ 10 | 100 to 1000
11 | C=CC(=O)N1CCC[C@@H](Nc2nnc(C(N)=O)c(Nc3cnc4ccccc4c3)n2)C1 [Example E-54, (R)-3-(1-acryloylpiperidin-3-ylamino)-5-(quinolin-3-ylamino)-1,2,4-triazine-6-carboxamide] | ≤ 10 | ≤ 10 | 10 to 100
12 | C=CC(=O)N1CCC[C@@H](Nc2nnc(C(N)=O)c(Nc3ccc(CN(C(=O)OCc4ccccc4)[C@@H](C)C(C)(C)C)cc3)n2)C1 [Example E-56, benzyl 4-(3-((R)-1-acryloylpiperidin-3-ylamino)-6-carbamoyl-1,2,4-triazin-5-ylamino)benzyl((S)-3,3-dimethylbutan-2-yl)carbamate] | ≤ 10 | ≤ 10 | 10 to 100
13 | C=CC(=O)N1CCC[C@@H](Nc2nnc(C(N)=O)c(Nc3cccc(-c4ncco4)c3)n2)C1 [Example E-65, (R)-3-(1-acryloylpiperidin-3-ylamino)-5-(3-(oxazol-2-yl)phenylamino)-1,2,4-triazine-6-carboxamide] | ≤ 10 | ≤ 10 | 10 to 100
14 | C=CC(=O)N1CCC[C@@H](Nc2nnc(C(N)=O)c(Nc3ccc4c(cnn4CC)c3)n2)C1 [Example E-66, (R)-3-(1-acryloylpiperidin-3-ylamino)-5-(1-ethyl-1H-indazol-5-ylamino)-1,2,4-triazine-6-carboxamide] | ≤ 10 | ≤ 10 | ≤ 10
15 | C=CC(=O)N1CCC[C@@H](Nc2nnc(C(N)=O)c(Nc3ccc(-n4cncn4)cc3)n2)C1 [Example E-69, (R)-5-(4-(1H-1,2,4-triazol-1-yl)phenylamino)-3-(1-acryloylpiperidin-3-ylamino)-1,2,4-triazine-6-carboxamide] | ≤ 10 | ≤ 10 | 10 to 100
16 | C=CC(=O)N1CCC[C@@H](Nc2nnc(C(N)=O)c(Nc3cnn(C)c3)n2)C1 [Example E-73, (R)-3-(1-acryloylpiperidin-3-ylamino)-5-(1-methyl-1H-pyrazol-4-ylamino)-1,2,4-triazine-6-carboxamide] | ≤ 10 | ≤ 10 | ≤ 10
17 | C=CC(=O)N1CCC[C@@H](Nc2nnc(C(N)=O)c(Nc3ccc(Cl)cc3)n2)C1 [Example E-74, (R)-3-(1-acryloylpiperidin-3-ylamino)-5-(4-chlorophenylamino)-1,2,4-triazine-6-carboxamide] | ≤ 10 | ≤ 10 | 10 to 100
18 | C=CC(=O)N1CCC[C@@H](Nc2nnc(C(N)=O)c(Nc3cccc(Cl)c3)n2)C1 [Example E-75, (R)-3-(1-acryloylpiperidin-3-ylamino)-5-(3-chlorophenylamino)-1,2,4-triazine-6-carboxamide] | ≤ 10 | ≤ 10 | 10 to 100
19 | C=CC(=O)N1CCC[C@@H](Nc2nnc(C(N)=O)c(Nc3cc(F)cc(Cl)c3)n2)C1 [Example E-76, (R)-3-(1-acryloylpiperidin-3-ylamino)-5-(3-chloro-5-fluorophenylamino)-1,2,4-triazine-6-carboxamide] | ≤ 10 | ≤ 10 | 10 to 100
20 | C=CC(=O)N1CCC[C@@H](Nc2nnc(C(N)=O)c(Nc3cccc(C#N)c3)n2)C1 [Example E-77, (R)-3-(1-acryloylpiperidin-3-ylamino)-5-(3-cyanophenylamino)-1,2,4-triazine-6-carboxamide] | ≤ 10 | ≤ 10 | 10 to 100
21 | C=CC(=O)N1CCC[C@@H](Nc2nnc(C(N)=O)c(Nc3ccc(S(F)(F)(F)(F)F)cc3)n2)C1 [Example E-78, (R)-3-(1-acryloylpiperidin-3-ylamino)-5-(4-(penta-fluorothio)phenyl-amino)-1,2,4-triazine-6-carboxamide] | ≤ 10 | ≤ 10 | 10 to 100
22 | C=CC(=O)N1CCC[C@@H](Nc2nnc(C(N)=O)c(Nc3ccc(C#N)cc3)n2)C1 [Example E-79, (R)-3-(1-acryloylpiperidin-3-ylamino)-5-(4-cyanophenylamino)-1,2,4-triazine-6-carboxamide] | ≤ 10 | ≤ 10 | 10 to 100
